How the values were obtained:
Assay type in all cases: physicochemical
[1] = Stability and moisture absorption: storage at 85% and 97% rel. humidity, evaluated by DSC, TGA and XRPD; settings: for mass change: after 12 months
Procedure: Stability and Moisture Absorption Samples of compound of the formula (I) in crystalline form of polymorph I were stored at 85% and 97% rel. humidity (25° C.). The samples were evaluated after 12 months by DSC, TGA and XRPD. After 12 months, a mass change of <0.1% is observed in both cases. […] According to DSC, TGA and XRPD, no difference exists in compound of the formula (I) in crystalline form of polymorph I.

[2] = Storage stability of polymorph I
[3] = TGA, loss of mass on heating; settings: up to a temperature of 175° C.
Procedure: No other phase transitions were observed. A loss of mass of ca. 0.1% was observed up to a temperature of 175° C.

[4] = 85% and 97% rel. humidity (25° C.), 12 months

With `CCOc1ncc(C)c2c1[C@H](c1ccc(C#N)cc1OC)C(C(N)=O)=C(C)N2` [(4S)-4-(4-cyano-2-methoxyphenyl)-5-ethoxy-2,8-dimethyl-1,4-dihydro-1,6-naphthyridine-3-carboxamide] the absorption of water [1, 4] was “no significant absorption of water”, the “difference according to DSC, TGA and XRPD after storage” value [1, 4] was “no difference” and the mass change ([1]; stored at 85% rel. humidity (25° C.)) was under 0.1%. For the same compound, the mass change ([1]; stored at 97% rel. humidity (25° C.)) was under 0.1%, the stability properties ([2]; even at high atmospheric humidity) was “very good stability properties” and the “storage time without any problem” value ([2]; solid, crystalline polymorph I) was over 2 years. The loss of mass [3] was “ca. 0.1%”.

— patent USRE49575E1, “Method for the preparation of (4S)-4-(4-cyano-2-methoxyphenyl)-5-ethoxy-2,8-dimethyl-l,4-dihydro-1-6-naphthyridine-3-carbox-amide and the purification thereof for use as an active pharmaceutical ingredient” (Bayer Pharma Aktiengesellschaft, priority 2014, dated 2023)
